Measurements from patent US20160374944A1, “COMPOSITIONS AND METHODS FOR TREATING AND PREVENTING CANCER BY TARGETING AND INHIBITING CANCER STEM CELLS” (priority 2011, published 2016).

Assays:
Pancreatic CSCs [1] = assay: cell viability, trypan blue, Vi-CELL analyzer; format: cell-based, human
Procedure: Pancreatic CSCs were treated with resveratrol (0-20 μM), curcumin (0-20 μM), honokiol (0-20 μM) and diallyl trisulphide (0-20 μM) for 3 days, and cell viability was measured by staining with trypan blue using Vi-CELL analyzer (Beckman Counter).
Pancreatic CSCs were treated with sulforaphane (0-20 μM), rottlerin (0-2 μM), EGCG (0-60 μM) and embelin (0-5 μM) for 3 days, and cell viability was measured by staining with trypan blue using Vi-CELL analyzer (Beckman Counter).
(§1) (A) Pancreatic CSCs were treated with SAHA (3 and 5 μM) and 5-Aza-dc (2 and 4 μM) and cell viability was measured at 48 h by staining with trypan blue using Vi-CELL analyzer (Beckman Counter). (B) Pancreatic CSCs were untreated (a) or treated with SAHA (b) or 5-Aza-dC (c) for 48 h, and apoptosis was measured by staining with annexin-PI using Accuri Flow Cytometer. (C) Caspase-3/7 activity was measured in pancreatic CSCs treated with SAHA (0.5 and 2 μM) or 5-Aza-dC (1 and 3 μM) for 25 h.
Pancreatic CSCs were treated with resveratrol (0-20 μM), curcumin (0-20 μM), honokiol (0-20 μM), and diallyl trisulphide (0-20 μM) for 3 days and cell viability was measured by staining with trypan blue using Vi-CELL analyzer. The results of those studies are illustrated in FIG. 27.
Pancreatic CSCs were treated with sulforaphane (0-20 μM), rottlerin (0-2 μM), EGCG (0-60 μM), and embelin (0-5 μM) for 3 days and cell viability was measured by staining with trypan blue using Vi-CELL analyzer. The results of those studies are illustrated in FIG. 28.
Pancreatic CSCs were treated with SAHA […] Vorinostat (3 and 5 μM) and 5-Aza-2′-deoxycytidine (5-Aza-dC, 2 and 4 μM) and cell viability was measured at 48 hours by staining with trypan blue using Vi-CELL analyzer. The results of those studies are illustrated in FIG. 31A.

Pancreatic CSCs [2] = assay: apoptosis; format: cell-based, human; details: 48 h, annexin-PI, flow cytometer
Procedure: (A and B) Induction of apoptosis and activation of caspase-3/-7. Pancreatic CSCs were treated with rottlerin (0-2 μM) for 48 h, and apoptosis and caspase-3/-7 activity were measured by […] and colorometric assay, respectively. […] (C) Pancreatic CSCs were treated with rottlerin (0-1 μM) for 48 h, and the expression of Bcl-2, XIAP and Survivin was measured by qRT-PCR and normalized to GAPDH.
as §1
(A) Regulation of caspase-3/7 activity by EGCG. CSCs were treated with EGCG (0-60 μM) for 24 h, and caspase-3/7 activity was measured as per manufacturer's instructions. […] (B) Regulation of apoptosis by EGCG. CSCs were treated with EGCG (0-60 μM) for 48 h, and apoptosis was measured by TUNEL assay. […] (C) Regulation of apoptosis-related proteins. Pancreatic CSCs were treated with EGCG (0-60 μM) for 36 h. Real time PCR (q-RT-PCR) was performed to examine the expression of Bcl-2, survivin, XIAP, and GAPDH.
FIG. 42A and FIG. 42B show graphs showing quercetin synergizes with EGCG to inhibit self-renewal capacity, invasion, migration, and TCF/LEF and Gli transcriptional activities in pancreatic CSCs. (A) Effects of EGCG and quercetin on spheroid and colony formation. Upper Panel, uercetin synergizes with EGCG to inhibit spheroid's cell viability. CSCs were seeded in suspension and treated with EGCG (0-60 μM) with or without quercetin (20 μM) for 7 days. At the end of incubation period, all the spheroids were collected and resuspended. Cell viability was measured by trypan blue assay. […] Lower panel, uercetin synergizes with EGCG to inhibit colony formation. Pancreatic CSCs were seeded in soft agar and treated with various doses of EGCG (0-60 μM) with or without quercetin (20 μM) and incubated at […] for 21 days. At the end of incubation period, colonies were counted. […] (B) Effects of EGCG and quercetin on invasion and migration. Upper panel, Matrigel invasion assay. CSCs were plated onto the Matrigel-coated membrane in the top chamber of the transwell and treated with EGCG (0-60 μM) with or without quercetin (20 μM) for 48 hrs. Cells invaded to the lower chambered were fixed with methanol, stained with crystal violet and counted. […] Lower panel, Transwell migration assay. Pancreatic CSCs were plated in the top chamber of the transwell and treated with EGCG (0-60 μM) with or without quercetin (20 μM) for 48 hrs. Cells migrated to the lower chambered were fixed with methanol, stained with crystal violet and counted. […] (C) Quercetin synergizes with EGCG to induce apoptosis. CSCs were seeded in suspension and treated with EGCG (0-60 μM) with or without quercetin (20 μM) for 7 days. At the end of incubation period, all the spheroids were collected. Apoptosis was measured by TUNEL assay. […] (D) Effects of EGCG and quercetin on TCF/LEF and Gli transcriptional activities. Pancreatic CSCs were transduced with either lentivirus encoding TCF/LEF responsive GFP and luciferase genes or Gli-responsive GFP and luciferase genes. Transduced CSCs were treated with EGCG (40 μM) with or without quercetin (20 μM) for 48 hrs and the luciferase activity was measured.
Pancreatic CSCs were (a) untreated, (b) treated with SAHA, or (c) treated with 5-Aza-dC for 48 hours and apoptosis was measured by staining with annexin-PI using Accuri Flow Cytometer. The results of those studies are illustrated in FIG. 31B.

Breast CSCs = assay: cell viability by XTT assay; format: cell-based; details: 3 days
Procedure: Breast CSCs were seeded in 96-well plate and treated with sulforaphane, diallyl trisulphide, resveratrol and curcumin for 3 days. At the end of incubation period, CSCs were harvested and cell viability was measured by XTT assay.
Breast CSCs were seeded in 96-well plate and treated with rottlerin, EGCG, embelin, and honokiol for 3 days. At the end of incubation period, breast CSCs were harvested and cell viability was measured by XTT assay.
(A-D) Breast CSCs were treated with PITC (0-20 μM), BSC, (0-20 μM), sulforaphane (0-20 μM) and honokiol (0-10 μM) for 3 days, and cell viability was measured by XTT assay.
Breast CSCs were treated with rottlerin (0-1 μM) for 3 days, and cell viability was measured by XTT assay.
Breast CSCs were seeded in 96-well plate and treated with sulforaphane, diallyl trisulphide, resveratrol, and curcumin for 3 days and cell viability was measured by XTT assay. The results of those studies are illustrated in FIG. 29.
Breast CSCs were seeded in 96-well plate and treated with Rottlerin, EGCG, embelin, and honokiol for 3 days and cell viability was measured by XTT assay. The results of those studies are illustrated in FIG. 30.

Pancreatic CSCs [3] = assay: cell viability by XTT assay; format: cell-based, human; details: 3 days; BSC 0-20 μM, honokiol 0-10 μM
Procedure: (§2) (A-B) Pancreatic CSCs were treated with BSC (0-20 μM) and honokiol (0-10 μM); (C-D) Prostate CSCs were treated with PITC (0-20 μM) and BSC (0-20 μM) for 3 days. Cell viability was measured by XTT assay.

Prostate CSCs [4] = assay: cell viability by XTT assay; format: cell-based, human; details: 3 days; PITC 0-20 μM, BSC 0-20 μM
Procedure: as §2

Brain CSCs [5] = assay: cell viability, trypan blue, Vi-CELL analyzer; format: cell-based; details: 3 days
Procedure: Brain CSCs were treated with resveratrol (0-20 μM), curcumin (0-20 μM), honokiol (0-20 μM) and diallyl trisulphide (0-10 μM) for 3 days, and cell viability was measured by staining with trypan blue using Vi-CELL analyzer (Beckman Counter).
Brain CSCs were treated with sulforaphane (0-20 μM), rottlerin (0-1 μM), EGCG (0-40 μM) and embelin (0-5 μM) for 48 h, and cell viability was measured by staining with trypan blue using Vi-CELL analyzer (Beckman Counter).
Brain CSCs were treated with resveratrol (0-20 μM), curcumin (0-20 μM) honokiol (0-20 μM), and diallyl trisulphide (0-10 μM) for 3 days and cell viability was measured by staining with trypan blue using Vi-CELL analyzer. The results of those studies are illustrated in FIG. 23.
Brain CSCs were treated with sulforaphane (0-20 μM), rottlerin (0-1 μM), EGCG (0-40 μM), and embelin (0-5 μM) for 48 hours and cell viability was measured by staining with trypan blue using Vi-CELL analyzer. The results of those studies are illustrated in FIG. 24.

Prostate CSCs [6] = assay: cell viability, trypan blue, Vi-CELL analyzer; format: cell-based, human; details: 3 days
Procedure: Prostate CSCs were treated with resveratrol (0-20 μM), curcumin (0-20 μM), honokiol (0-20 μM) and diallyl trisulphide (0-10 μM) for 3 days, and cell viability was measured by staining with trypan blue using Vi-CELL analyzer (Beckman Counter).
Prostate CSCs were treated with sulforaphane (0-20 μM), rottlerin (0-5 μM), EGCG (0-40 μM) and embelin (0-1 μM) for 3 days, and cell viability was measured by staining with trypan blue using Vi-CELL analyzer (Beckman Counter).
Prostate CSCs were treated with resveratrol (0-20 μM), curcumin (0-20 μM), honokiol (0-20 μM), and diallyl trisulphide (0-10 μM) for 3 days and cell viability was measured by staining with trypan blue using Vi-CELL analyzer. The results of those studies are illustrated in FIG. 25.
Prostate CSCs were treated with sulforaphane (0-20 μM), rottlerin (0-5 μM), EGCG (0-40 μM), and embelin (0-1 μM) for 3 days and cell viability was measured by staining with trypan blue using Vi-CELL analyzer. The results of those studies are illustrated in FIG. 26.

pancreatic cancer = details: background statement; cited from earlier work
Brain CSCs [7] = assay: cell viability by XTT assay; format: cell-based; details: 3 days; 0-20 μM
Procedure: (A-B) Brain CSCs were treated with sulforaphane (0-20 μM), and honokiol (0-20 μM) for 3 days, and cell viability was measured by XTT assay.

[8] = 48 h, SAHA 3 and 5 μM, 5-Aza-dc 2 and 4 μM

Row | SMILES | cell viability (Breast CSCs) | cell viability (Brain CSCs [5]) | cell viability (Prostate CSCs [6]) | cell viability (Pancreatic CSCs [1]; 3 days) | further results
1 | Nc1ncn([C@H]2C[C@H](O)[C@@H](CO)O2)c(=O)n1 [5-Aza-dC, 5-Aza-2′-deoxycytidine, reference compound] | – | – | – | – | cell viability (Pancreatic CSCs [1]; [8]): inhibit cell viability; apoptosis (Pancreatic CSCs [2]): promote apoptosis
2 | O=C(CCCCCCC(=O)Nc1ccccc1)NO [SAHA, reference compound] | – | – | – | – | cell viability (Pancreatic CSCs [1]; [8]): inhibit cell viability; apoptosis (Pancreatic CSCs [2]): promote apoptosis
3 | N#C[Se]Cc1ccccc1 [BSC, benzyl selenocyanate] | inhibit cell viability | – | – | – | cell viability (Pancreatic CSCs [3]): inhibit cell viability; cell viability (Prostate CSCs [4]): inhibit cell viability
4 | COc1cc(/C=C/C(=O)CC(=O)/C=C/c2ccc(O)c(OC)c2)ccc1O [curcumin] | inhibit cell viability | inhibit cell viability | inhibit cell viability | inhibit cell viability | –
5 | Nc1ccn([C@@H]2O[C@H](CO)[C@@H](O)C2(F)F)c(=O)n1 [Gemcitabine] | – | – | – | – | pancreatic cancer patients in whom the drug is effective (pancreatic cancer): 30%; survival of pancreatic cancer patients (pancreatic cancer): less than 5 years
6 | Oc1ccc(C=Cc2cc(O)cc(O)c2)cc1 [resveratrol] | inhibit cell viability | inhibit cell viability | inhibit cell viability | inhibit cell viability | –
7 | C=CCSSSCC=C [diallyl trisulphide] | inhibit cell viability | inhibit cell viability | inhibit cell viability | inhibit cell viability | –
8 | C=CCc1ccc(O)c(-c2ccc(O)c(CC=C)c2)c1 [honokiol] | inhibit cell viability | inhibit cell viability | inhibit cell viability | inhibit cell viability | cell viability (Pancreatic CSCs [3]): inhibit cell viability; cell viability (Brain CSCs [7]): inhibit cell viability
9 | S=C=Nc1ccccc1 [PITC, phenyl isothiocyanate] | inhibit cell viability | – | – | – | cell viability (Prostate CSCs [4]): inhibit cell viability
